Reference: publication PMC8704707 (Pharmaceuticals, 2021)
Values after ≈ are worked out from the molar mass of the structure shown. Values joined by “and” are separate entries in the source; they are usually repeats but may differ in a detail not shown here. Equal values may be shown once. Read-outs that look alike come from different tables or passages of the source.

Key:
[1] = system: Candida krusei ATCC 6258; experiment: microbe, parasite or virus in culture; type: cell-based; settings: Pichia kudriavzevii
[2] = system: Candida tropicalis ATCC 750; experiment: microbe, parasite or virus in culture; type: cell-based
[3] = system: Enterococcus faecalis ATCC 29212; experiment: Antibacterial microdilution broth method (EUCAST); type: cell-based
[4] = system: methicillin-resistant Staphylococcus aureus ATCC 43300; experiment: Antibacterial microdilution broth method (EUCAST); type: cell-based; settings: ATCC 43300 / MRSA
[5] = system: Staphylococcus epidermidis ATCC 12228; experiment: Antibacterial microdilution broth method (EUCAST); type: cell-based
[6] = in vitro; settings: human
[7] = system: Trichophyton interdigitale ATCC 9533; experiment: microbe, parasite or virus in culture; type: cell-based
[8] = system: Acinetobacter baumannii ATCC 19606; experiment: Antibacterial microdilution broth method (EUCAST); type: cell-based
[9] = in vitro; settings: human; for IC50 at 24 h: HepG2 cells
Experimental: (§1) Cytotoxicity of the tested compounds was measured using the standard hepatic cell line HepG2. The used CellTiter 96® assay is based on the reduction of tetrazolium dye (MTS) in living cells to formazan, which is then determined colorimetrically.

[10] = system: Pseudomonas aeruginosa ATCC 27853; experiment: Antibacterial microdilution broth method (EUCAST); type: cell-based
[11] = target: AChE from electric eel (EeAChE) (Electrophorus electricus, UniProt O42275); experiment: biochemical; type: biochemical
Sequence of AChE from electric eel (EeAChE) (O42275 24-633): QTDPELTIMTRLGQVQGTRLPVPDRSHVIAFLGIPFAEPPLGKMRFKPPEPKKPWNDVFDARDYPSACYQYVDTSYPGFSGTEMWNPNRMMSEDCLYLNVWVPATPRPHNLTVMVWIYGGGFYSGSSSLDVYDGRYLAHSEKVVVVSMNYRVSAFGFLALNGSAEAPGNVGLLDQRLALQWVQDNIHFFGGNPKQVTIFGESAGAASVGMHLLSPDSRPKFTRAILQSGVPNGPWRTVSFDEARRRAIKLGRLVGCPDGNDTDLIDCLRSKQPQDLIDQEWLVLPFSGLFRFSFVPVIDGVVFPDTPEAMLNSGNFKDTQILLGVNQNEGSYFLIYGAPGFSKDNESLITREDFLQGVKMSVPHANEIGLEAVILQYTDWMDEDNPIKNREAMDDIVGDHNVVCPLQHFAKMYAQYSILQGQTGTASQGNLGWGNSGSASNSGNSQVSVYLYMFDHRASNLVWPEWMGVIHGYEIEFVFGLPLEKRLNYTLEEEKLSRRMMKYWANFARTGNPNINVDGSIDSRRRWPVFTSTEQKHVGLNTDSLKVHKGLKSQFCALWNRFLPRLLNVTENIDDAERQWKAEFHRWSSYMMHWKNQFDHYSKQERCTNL

[12] = system: HepG2 cells
Experimental: as §1

[13] = system: Staphylococcus aureus ATCC 29213; experiment: Antibacterial microdilution broth method (EUCAST); type: cell-based
[14] = system: HepG2 cells; experiment: LDH release assay (CytoTox 96), membrane integrity; settings: read-out: EC50 LDH release assay
[15] = system: Klebsiella pneumoniae ATCC 10031; settings: for MIC KP 24 h: 24 h incubation; for MIC KP 48 h: 48 h incubation
[16] = system: Candida parapsilosis ATCC 22019; experiment: microbe, parasite or virus in culture; type: cell-based; settings: Lodderomyces parapsilosis
[17] = target: BuChE from equine serum (EqBuChE) (Equus caballus, UniProt P81908); experiment: biochemical
Sequence of BuChE from equine serum (EqBuChE) (P81908 whole entry): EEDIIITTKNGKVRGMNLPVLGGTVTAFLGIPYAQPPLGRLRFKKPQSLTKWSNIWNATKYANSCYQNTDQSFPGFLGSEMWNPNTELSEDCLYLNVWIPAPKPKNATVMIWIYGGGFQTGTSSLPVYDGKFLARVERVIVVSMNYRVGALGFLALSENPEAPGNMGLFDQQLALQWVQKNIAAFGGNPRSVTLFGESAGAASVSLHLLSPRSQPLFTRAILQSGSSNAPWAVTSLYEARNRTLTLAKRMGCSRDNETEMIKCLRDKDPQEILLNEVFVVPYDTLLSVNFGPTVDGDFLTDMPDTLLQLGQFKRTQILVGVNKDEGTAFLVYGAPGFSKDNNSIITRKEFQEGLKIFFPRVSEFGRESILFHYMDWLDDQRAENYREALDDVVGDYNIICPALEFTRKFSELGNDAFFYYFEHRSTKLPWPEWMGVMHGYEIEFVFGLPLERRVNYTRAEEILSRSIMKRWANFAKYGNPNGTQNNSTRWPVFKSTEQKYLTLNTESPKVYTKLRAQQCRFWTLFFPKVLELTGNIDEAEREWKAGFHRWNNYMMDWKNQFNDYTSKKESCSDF

[18] = system: Escherichia coli ATCC 25922; experiment: Antibacterial microdilution broth method (EUCAST); type: cell-based
[19] = system: Candida albicans ATCC 24443; experiment: microbe, parasite or virus in culture; type: cell-based
[20] = system: eight human pathogenic fungi; experiment: Antifungal microdilution broth method, whole panel; type: cell-based; settings: not reported in Table 2, read-out: MIC, all fungal strains tested
[21] = ATCC6258, 24 h, read-out: MIC CK 24 h
[22] = ATCC6258, 48 h, read-out: MIC CK 48 h
[23] = ATCC750, 24 h, read-out: MIC CT 24 h
[24] = ATCC750, 48 h, read-out: MIC CT 48 h
[25] = ATCC29212, 24 h, read-out: MIC EF 24 h
[26] = ATCC29212, 48 h, read-out: MIC EF 48 h
[27] = ATCC12228, 24 h, read-out: MIC SE 24 h
[28] = ATCC12228, 48 h, read-out: MIC SE 48 h
[29] = ATCC9533, 72 h, read-out: MIC TI 72 h
[30] = ATCC9533, 120 h, read-out: MIC TI 120 h
[31] = ATCC19606, 24 h, read-out: MIC ACI 24 h
[32] = ATCC19606, 48 h, read-out: MIC ACI 48 h
[33] = ATCC27853, 24 h, read-out: MIC PA 24 h
[34] = ATCC27853, 48 h, read-out: MIC PA 48 h
[35] = ATCC29213, 24 h, read-out: MIC SA 24 h
[36] = ATCC29213, 48 h, read-out: MIC SA 48 h
[37] = ATCC22019, 24 h, read-out: MIC CP 24 h
[38] = ATCC22019, 48 h, read-out: MIC CP 48 h
[39] = ATCC25922, 24 h, read-out: MIC EC 24 h
[40] = ATCC25922, 48 h, read-out: MIC EC 48 h
[41] = ATCC24443, 24 h, read-out: MIC CA 24 h
[42] = ATCC24443, 48 h, read-out: MIC CA 48 h
[43] = mean ± SD, n = three independent experiments, ATCh 40 µM, read-out: IC50 AChE
[44] = read-out: IC50 cytotoxicity towards HepG2 cell line, CellTiter 96, 24 h incubation
[45] = mean ± SD, n = three independent experiments, BTCh 40 µM, read-out: IC50 BuChE

Structure (SMILES) | MIC [3, 25] [µM] | MIC [3, 26] [µM] | MIC ([4]; 24 h, read-out: MIC MRSA 24 h) [µM] | MIC ([4]; 48 h, read-out: MIC MRSA 48 h) [µM] | MIC [5, 27] [µM] | MIC [5, 28] [µM] | EC50 at 24 h ([6]; HepG2 cells) [µM] | MIC [8, 31] [µM] | MIC [8, 32] [µM] | IC50 at 24 h [9] [µM] | MIC [10, 33] [µM] | MIC [10, 34] [µM] | MIC [13, 35] [µM] | MIC [13, 36] [µM] | MIC KP 24 h [15] [µM] | MIC KP 48 h [15] [µM] | MIC [18, 39] [µM] | MIC [18, 40] [µM] | Selectivity AChE/BuChE [11] | EC50 ([14]; HepG2, 24 h incubation) [µM] | also measured
Cl.N=C(NN)N/N=C/c1cc(I)cc(I)c1O [Compound 2e, (E)-Hydrazineyl[2-(2-hydroxy-3,5-diiodobenzylidene)hydrazineyl]methaniminium chloride] | > 125 | > 125 | 125 | 125 | 31.2 | 31.2 | > 100 | > 125 | > 125 | > 100 | > 125 | > 125 | 62.5 | 125 | >125 | >125 | > 125 | > 125 |  |  | MIC [1, 21]: 125 µM; MIC [1, 22]: 125 µM; MIC [2, 23]: 125 µM; MIC [2, 24]: 125 µM; MIC [7, 29]: 125 µM; MIC [7, 30]: 125 µM; IC50 [11]: 28.2 ± 0.98 µM; IC50 ([12]; read-out: IC50 cytotoxicity towards HepG2 cell line): 120 µM; EC50 [14]: 132 µM; MIC [16, 37]: 125 µM; MIC [16, 38]: 125 µM; Type of inhibition of BuChE [17]: mixed inhibition; IC50 ([17]; read-out: IC50 BuChE): 1.69 ± 0.17 µM; MIC [19, 41]: 125 µM; MIC [19, 42]: 125 µM
[H]/N=C(\N)NN=Cc1ccc([N+](=O)[O-])o1 [Compound 1n, (E)-2-[(5-Nitrofuran-2-yl)methylene]hydrazine-1-carboximidamide] | 500 (≈ 98.6 µg/mL) | 500 (≈ 98.6 µg/mL) | 125 (≈ 24.6 µg/mL) | 125 (≈ 24.6 µg/mL) | 62.5 (≈ 12.3 µg/mL) | 125 (≈ 24.6 µg/mL) |  | 250 (≈ 49.3 µg/mL) | 500 (≈ 98.6 µg/mL) |  | 500 (≈ 98.6 µg/mL) | 500 (≈ 98.6 µg/mL) | 62.5 (≈ 12.3 µg/mL) | 125 (≈ 24.6 µg/mL) | 250 (≈ 49.3 µg/mL) | 250 (≈ 49.3 µg/mL) | 62.5 (≈ 12.3 µg/mL) | 125 (≈ 24.6 µg/mL) | 0.12 | 3.55 | EC50 at 24 h [6]: < 6 µM; IC50 [9]: < 11 µM; IC50 [11]: 24.2 ± 0.75 µM; Type of inhibition of AChE [11]: mixed inhibition; IC50 ([12]; human): 10.4 µM; IC50 ([17]; IC50 BuChE): 204 ± 13.2 µM; MIC [20]: ≥ 500 µM
CC(=O)Oc1c(I)cc(I)cc1/C=N/NC(=N)N [Compound 2a, (E)-2-[(2-Carbamimidoylhydrazineylidene)methyl]-4,6-diiodophenyl acetate] | 250 | 250 | 125 | 125 | 250 | 250 | > 20 | 500 | 500 | > 29 | > 500 | > 500 | 125 | 125 | 250 | 250 | 250 | 250 | 4.54 | 30.4 | MIC [1, 21]: 500 µM; MIC [1, 22]: 500 µM; MIC [2, 23]: 500 µM; MIC [2, 24]: 500 µM; MIC [7, 29]: 62.5 µM; MIC [7, 30]: 125 µM; Type of inhibition of AChE [11]: mixed inhibition; IC50 [11, 43]: 20.5 ± 0.48 µM; IC50 [12, 44]: 31.3 µM; MIC [16, 37]: 500 µM; MIC [16, 38]: 500 µM; Type of inhibition of BuChE [17]: mixed inhibition; IC50 [17, 45]: < 20 µM and 4.52 µM; MIC [19, 41]: 125 µM; MIC [19, 42]: 125 µM
NC(=S)N/N=C/c1ccc([N+](=O)[O-])o1 [Compound 3e, (E)-2-[(5-Nitrofuran-2-yl)methylene]hydrazine-1-carbothioamide] | 125 (≈ 26.8 µg/mL) | 125 (≈ 26.8 µg/mL) | 62.5 (≈ 13.4 µg/mL) | 62.5 (≈ 13.4 µg/mL) | 31.2 (≈ 6.69 µg/mL) | 62.5 (≈ 13.4 µg/mL) | < 6 | > 500 | > 500 | > 29 | > 500 | > 500 | 62.5 (≈ 13.4 µg/mL) | 62.5 (≈ 13.4 µg/mL) | 62.5 (≈ 13.4 µg/mL) | 62.5 (≈ 13.4 µg/mL) | 125 (≈ 26.8 µg/mL) | 250 (≈ 53.6 µg/mL) | <0.07 | 5.25 | IC50 [11, 43]: 33.16 ± 0.06 µM; IC50 [12, 44]: 29.8 µM; IC50 [17, 45]: > 500 µM
